The record followed here is ChEMBL document CHEMBL5365526 (J Med Chem, 2023).

pIC50: −log10 of the molar value. Activity calls are given as the source filed them. No cut-off for these calls is given here.

In test [1] the target is T1, von Hippel-Lindau disease tumor suppressor/Mitogen-activated protein kinase 7 (Homo sapiens, UniProt Q13164+P40337). In words: PROTAC activity at VHL/ERK5 in human HCT-116 cells assessed as maximal induction of ERK5 degradation incubated for 12 hrs by western blot analysis relative to control. Type of test: cell-based.
Target sequence in this assay (P40337 whole entry partner): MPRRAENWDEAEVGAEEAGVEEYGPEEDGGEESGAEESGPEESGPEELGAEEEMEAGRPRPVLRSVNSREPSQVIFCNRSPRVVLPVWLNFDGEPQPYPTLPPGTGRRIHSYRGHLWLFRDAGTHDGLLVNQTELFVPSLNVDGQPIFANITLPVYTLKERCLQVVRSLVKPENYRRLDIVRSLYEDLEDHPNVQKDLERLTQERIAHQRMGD
Target sequence in this assay (Q13164 2-816 limits assumed): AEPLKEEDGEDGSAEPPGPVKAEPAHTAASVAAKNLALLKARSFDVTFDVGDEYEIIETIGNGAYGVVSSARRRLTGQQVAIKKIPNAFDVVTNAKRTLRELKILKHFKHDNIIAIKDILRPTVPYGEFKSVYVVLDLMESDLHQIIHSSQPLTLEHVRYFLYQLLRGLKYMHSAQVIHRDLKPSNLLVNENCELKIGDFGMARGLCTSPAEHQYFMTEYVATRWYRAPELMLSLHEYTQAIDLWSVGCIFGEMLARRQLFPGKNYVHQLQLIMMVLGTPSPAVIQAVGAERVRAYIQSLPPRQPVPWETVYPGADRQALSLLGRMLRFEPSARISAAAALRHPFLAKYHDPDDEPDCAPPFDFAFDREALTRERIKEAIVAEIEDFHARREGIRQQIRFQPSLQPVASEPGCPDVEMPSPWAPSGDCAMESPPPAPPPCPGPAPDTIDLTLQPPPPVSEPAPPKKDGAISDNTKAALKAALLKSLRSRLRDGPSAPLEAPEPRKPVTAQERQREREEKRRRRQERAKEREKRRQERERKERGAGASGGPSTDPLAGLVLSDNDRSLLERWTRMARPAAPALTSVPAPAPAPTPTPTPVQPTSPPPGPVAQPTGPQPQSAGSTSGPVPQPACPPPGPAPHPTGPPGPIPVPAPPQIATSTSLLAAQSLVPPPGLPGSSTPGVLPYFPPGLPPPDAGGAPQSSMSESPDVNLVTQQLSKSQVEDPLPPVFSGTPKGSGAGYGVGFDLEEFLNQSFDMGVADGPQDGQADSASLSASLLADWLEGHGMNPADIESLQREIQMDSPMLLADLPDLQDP
Test [2] addresses T1, von Hippel-Lindau disease tumor suppressor/Mitogen-activated protein kinase 7. Kind of test: PROTAC activity at VHL/ERK5 in human HCT-116 cells assessed as induction of ERK5 degradation incubated for 12 hrs by western blot analysis. Type of test: cell-based. For orientation: In western blotting, separated proteins are transferred to a membrane and probed.
Target sequence in this assay (Q13164 whole entry): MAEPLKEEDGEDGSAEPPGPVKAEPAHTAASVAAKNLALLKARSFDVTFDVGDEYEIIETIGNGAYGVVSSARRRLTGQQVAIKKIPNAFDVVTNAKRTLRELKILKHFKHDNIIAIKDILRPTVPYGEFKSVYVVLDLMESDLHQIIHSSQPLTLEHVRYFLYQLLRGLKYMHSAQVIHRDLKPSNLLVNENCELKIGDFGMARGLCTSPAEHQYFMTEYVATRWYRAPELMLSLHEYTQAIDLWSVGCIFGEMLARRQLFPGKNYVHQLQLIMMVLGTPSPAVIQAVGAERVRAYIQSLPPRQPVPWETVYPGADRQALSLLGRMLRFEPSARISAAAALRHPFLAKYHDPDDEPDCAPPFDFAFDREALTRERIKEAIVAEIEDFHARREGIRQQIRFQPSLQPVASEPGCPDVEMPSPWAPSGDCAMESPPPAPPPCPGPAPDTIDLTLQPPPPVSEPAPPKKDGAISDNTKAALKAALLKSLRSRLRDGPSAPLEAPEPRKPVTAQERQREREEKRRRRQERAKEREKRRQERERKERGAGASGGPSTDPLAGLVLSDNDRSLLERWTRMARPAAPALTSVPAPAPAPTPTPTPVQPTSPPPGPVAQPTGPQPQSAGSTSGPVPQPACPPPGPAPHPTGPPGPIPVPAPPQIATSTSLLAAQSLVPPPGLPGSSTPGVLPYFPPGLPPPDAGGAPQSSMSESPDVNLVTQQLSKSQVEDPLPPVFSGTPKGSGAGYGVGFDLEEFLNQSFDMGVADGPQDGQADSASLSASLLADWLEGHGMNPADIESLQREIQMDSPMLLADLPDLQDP
Target sequence in this assay (P40337 whole entry): as the sequence (P40337 whole entry partner) above
The test system of test [3] is A-375. Kind of test: Effect on vemurafenib-induced antitumor activity against human A-375 cells assessed as reduction in cell viability at 200 nM incubated for 72 hrs by CCK8 assay. Type of test: functional, cell-based. Background: Tetrazolium assays rely on reduction of a dye to a coloured formazan, in cell work by metabolically active cells.
Test [4] addresses T1, von Hippel-Lindau disease tumor suppressor/Mitogen-activated protein kinase 7. Kind of test: PROTAC activity at VHL/ERK5 in human A-375 cells assessed as maximal induction of ERK5 degradation incubated for 12 hrs by western blot analysis relative to control. Type of test: cell-based.
Target sequence in this assay (P40337 whole entry partner): as above
Target sequence in this assay (Q13164 2-816 limits assumed): as the sequence (Q13164 2-816 limits assumed) above
The target is the same in test [5]. In words: PROTAC activity at VHL/ERK5 in human MDA-MB-231 cells assessed as induction of ERK5 degradation incubated for 12 hrs by western blot analysis. Type of test: cell-based.
Target sequence in this assay (Q13164 whole entry): as the sequence (Q13164 whole entry) above
Target sequence in this assay (P40337 whole entry): as the sequence (P40337 whole entry partner) above
For test [6] the target is unchanged. In words: PROTAC activity at VHL/ERK5 in human PC-3 cells assessed as maximal induction of ERK5 degradation incubated for 12 hrs by western blot analysis relative to control. Type of test: cell-based.
Target sequence in this assay (P40337 whole entry partner): as above
Target sequence in this assay (Q13164 2-816 limits assumed): as the sequence (Q13164 2-816 limits assumed) above
The test system of test [7] is HCT-116. In words: Inhibition of M2 macrophage development in human HCT-116 cells assessed as inhibition of cell colony formation at 0.5 uM cultured in macrophage M0 medium and measured after 7 days in presence of LPS by crystal violet staining based analysis. Type of test: functional. The note with it: time 7.0 day.
In test [8] the target is T2, Mitogen-activated protein kinase 7 (Homo sapiens, UniProt Q13164). In words: Inhibition of ERK5 (unknown origin) at 0.5 uM by kinase profiling analysis.
Target sequence in this assay (Q13164 2-816 limits assumed): as above
The target in test [9] is T1, von Hippel-Lindau disease tumor suppressor/Mitogen-activated protein kinase 7. Kind of test: PROTAC activity at VHL/ERK5 in human NCI-H1975 cells assessed as maximal induction of ERK5 degradation incubated for 12 hrs by western blot analysis relative to control. Type of test: cell-based.
Target sequence in this assay (P40337 whole entry partner): as the sequence (P40337 whole entry partner) above
Target sequence in this assay (Q13164 2-816 limits assumed): as the sequence (Q13164 2-816 limits assumed) above
Test [10] addresses von Hippel-Lindau disease tumor suppressor/Serine/threonine-protein kinase DCLK1 (Homo sapiens) (UniProt O15075+P40337). In words: PROTAC activity at VHL/DCLK1 in human A-375 cells assessed as induction of DCLK1 degradation at 6 to 500 nM incubated for 12 hrs by western bot analysis. Type of test: cell-based. The note with it: dose 6-500 nM.
Test [11] has as its target T1, von Hippel-Lindau disease tumor suppressor/Mitogen-activated protein kinase 7. Kind of test: PROTAC activity at VHL/ERK5 in human THP-1 cells assessed as decrease in IL-6 level at 0.5 uM incubated for 0.5 hrs followed by incubation with LPS for 24 hrs. Type of test: cell-based. The settings on record: time 24.5 hrs.
Target sequence in this assay (P40337 whole entry partner): as the sequence (P40337 whole entry partner) above
Target sequence in this assay (Q13164 2-816 limits assumed): as the sequence (Q13164 2-816 limits assumed) above
For test [12], the system named is A-375. In words: Effect on ERK5 mRNA expression in human A-375 cells at 10 to 1000 nM incubated for 24 hrs by real-time PCR analysis. The settings on record: dose 10-1000 nM. Type of test: functional, cell-based. In general terms: Quantitative PCR measures a nucleic acid by following its amplification.
The target of test [13] is T1, von Hippel-Lindau disease tumor suppressor/Mitogen-activated protein kinase 7. Kind of test: PROTAC activity at VHL/ERK5 in human HCT-116 cells assessed as induction of ERK5 degradation at 200 nM incubated for 48 hrs by western blot analysis. Type of test: cell-based.
Target sequence in this assay (P40337 whole entry partner): as the sequence (P40337 whole entry partner) above
Target sequence in this assay (Q13164 2-816 limits assumed): as the sequence (Q13164 2-816 limits assumed) above
The subject of test [14] is HCT-116. Kind of test: Effect on dabrafenib-induced antitumor activity against human HCT-116 cells assessed as reduction in cell viability at 200 nM incubated for 72 hrs by CCK8 assay. Type of test: functional, cell-based.
Test [15] deals with HCT-116. In words: Effect on GDC0994-induced antitumor activity against human HCT-116 cells assessed as reduction in cell viability at 200 nM incubated for 72 hrs by CCK8 assay. Type of test: functional, cell-based.
Another test concerns NCI-H1975. Kind of test: Antiproliferative activity against human NCI-H1975 cells assessed as reduction in cell viability incubated for 72 hrs by CCK8 assay. Type of test: functional, cell-based.
Test [16] has as its target T1, von Hippel-Lindau disease tumor suppressor/Mitogen-activated protein kinase 7. In words: PROTAC activity at VHL/ERK5 in human A-375 cells assessed as induction of ERK5 degradation at 100 nM incubated for 24 hrs by western blot analysis. Type of test: cell-based.
Test [17] shares this target. In words: PROTAC activity at VHL/ERK5 in human HepG2 cells assessed as maximal induction of ERK5 degradation incubated for 12 hrs by western blot analysis relative to control. Type of test: cell-based.
Test [18] concerns the target T2, Mitogen-activated protein kinase 7. Kind of test: Inhibition of ERK5 (unknown origin) by ADP-Glo kinase assay.
Target sequence in this assay (Q13164 whole entry): as the sequence (Q13164 whole entry) above
Test [19] addresses T1, von Hippel-Lindau disease tumor suppressor/Mitogen-activated protein kinase 7. Kind of test: PROTAC activity at VHL/ERK5 in human A-375 cells assessed as induction of ERK5 degradation at 200 nM incubated for 72 hrs by western blot analysis. Type of test: cell-based.
In another test the test system is THP-1. Kind of test: Inhibition of M2 macrophage development in PMA-differentiated human THP-1 cells assessed as morphological alterations in macrophages at 0.5 uM incubated for 48 hrs by microscopic analysis. Type of test: functional, cell-based.
The subject of test [20] is A-375. Kind of test: Antiproliferative activity against human A-375 cells assessed as reduction in cell viability incubated for 72 hrs by CCK8 assay. Type of test: functional, cell-based.
The target in test [21] is T1, von Hippel-Lindau disease tumor suppressor/Mitogen-activated protein kinase 7. In words: PROTAC activity at VHL/ERK5 in human NCI-H1975 cells assessed as induction of ERK5 degradation incubated for 12 hrs by western blot analysis. Type of test: cell-based.
Target sequence in this assay (Q13164 whole entry): as above
Target sequence in this assay (P40337 whole entry): as the sequence (P40337 whole entry partner) above

von Hippel-Lindau disease tumor suppressor/Serine/threonine-protein kinase DCLK1 (Homo sapiens), sequence (O15075 whole entry, looked up): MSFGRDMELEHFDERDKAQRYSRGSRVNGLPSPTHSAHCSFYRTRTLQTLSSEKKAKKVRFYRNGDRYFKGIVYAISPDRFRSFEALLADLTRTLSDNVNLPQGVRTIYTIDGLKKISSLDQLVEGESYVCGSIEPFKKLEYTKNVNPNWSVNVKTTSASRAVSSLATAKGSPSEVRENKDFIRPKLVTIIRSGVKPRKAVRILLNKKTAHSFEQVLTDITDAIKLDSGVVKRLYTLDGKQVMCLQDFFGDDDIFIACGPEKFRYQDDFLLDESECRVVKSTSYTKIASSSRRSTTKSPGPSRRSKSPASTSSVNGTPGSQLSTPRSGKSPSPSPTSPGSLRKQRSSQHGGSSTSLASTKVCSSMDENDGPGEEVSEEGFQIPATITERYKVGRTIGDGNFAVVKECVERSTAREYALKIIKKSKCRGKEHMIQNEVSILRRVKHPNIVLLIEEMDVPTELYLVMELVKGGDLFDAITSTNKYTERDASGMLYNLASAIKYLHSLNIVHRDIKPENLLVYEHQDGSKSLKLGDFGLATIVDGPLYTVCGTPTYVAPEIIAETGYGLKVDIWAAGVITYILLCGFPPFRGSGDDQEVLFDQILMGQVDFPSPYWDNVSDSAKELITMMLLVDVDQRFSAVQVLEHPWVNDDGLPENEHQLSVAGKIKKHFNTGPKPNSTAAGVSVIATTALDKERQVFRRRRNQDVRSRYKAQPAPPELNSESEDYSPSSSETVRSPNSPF
von Hippel-Lindau disease tumor suppressor/Serine/threonine-protein kinase DCLK1 (Homo sapiens), sequence (P40337 whole entry, looked up): as the sequence (P40337 whole entry partner) above

`COc1cc(N2CCN(CCCCCCC(=O)N[C@H](C(=O)N3C[C@H](O)C[C@H]3C(=O)N[C@@H](C)c3ccc(-c4scnc4C)cc3)C(C)(C)C)CC2)ccc1Nc1ncc2c(n1)N(C)c1ccccc1C(=O)N2C`: the Activity in test [1] was 88.9%; in test [4], 91.4%; in test [6], 89.4%; in [9] it was 94.7%; in test [17], 92.7%. In addition, the figures for the DC50 in test [2], in test [5] and in test [21] were 0.0056 µM, 0.0227 µM and 0.0115 µM, respectively. Also, the result (in the test on A-375 [3]; in [10]; in the test on A-375 [12]; in the test with HCT-116 [14]; in the test with HCT-116 [15]; in the test on NCI-H1975) was inactive. Also, the outcome with A-375 [20] was inactive. Also, the inhibition entry (in the test on HCT-116 [7]; in test [8]; in the test with THP-1) was “Active” in each case. The outcome in test [11], in test [13], in test [16] and in [19] was Active. Besides, in test [18], the pIC50 is 7.20.

As usually defined, the DC50 is the concentration giving 50% degradation. The pIC50 is −log10 of the IC50, conventionally taken in molar units.
